Laboratory results published in ChEMBL document CHEMBL1129317, “Novel selective and partial agonists of 5-HT3 receptors. Part 1. Synthesis and biological evaluation of piperazinopyrrolothienopyrazines” (J Med Chem, 1996).

Legend:
[1] = target: 5-hydroxytryptamine receptor 1D (Sus scrofa, UniProt P79400); experiment: Binding affinity for 5-hydroxytryptamine 1D receptor
[2] = target: Thromboxane A2 receptor (Homo sapiens) (UniProt P21731); experiment: Inhibitory activity against Thromboxane A2 using [3H]SG-29548 at 10e-5 (M)
Thromboxane A2 receptor (Homo sapiens), sequence (P21731 whole entry): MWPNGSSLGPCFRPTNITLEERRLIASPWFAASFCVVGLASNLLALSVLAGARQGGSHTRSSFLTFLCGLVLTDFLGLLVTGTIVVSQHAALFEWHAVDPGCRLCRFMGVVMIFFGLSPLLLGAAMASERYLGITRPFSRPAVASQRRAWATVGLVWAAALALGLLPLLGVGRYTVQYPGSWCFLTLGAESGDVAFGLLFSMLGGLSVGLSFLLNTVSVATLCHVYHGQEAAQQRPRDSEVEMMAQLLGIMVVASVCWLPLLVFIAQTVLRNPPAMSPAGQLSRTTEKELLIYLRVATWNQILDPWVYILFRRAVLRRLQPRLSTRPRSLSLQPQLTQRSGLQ

[3] = target: GABA-A receptor; anion channel (Homo sapiens) (UniProt P14867+P47870+P18507+P28472+P48169+Q99928+Q9UN88+P34903+O00591+O14764+Q8N1C3+P18505+P78334+P47869+P31644+Q16445); experiment: Inhibition of [3H]flunitrazepam binding to GABA-A central Benzodiazepine receptor at 10e-5 M; assay type: protein-complex assay
[4] = system: NG108-15; experiment: In vitro effective concentration against [14C]guanidinium uptake into NG 108-15 cells; assay type: functional, cell-based; conditions: Murinae
[5] = target: T1, Glutamate [NMDA] receptor (Homo sapiens) (UniProt Q05586+Q12879+Q13224+O15399+O60391+Q14957+Q8TCU5); experiment: Inhibitory activity against Phencyclidine receptor using [3H]-TCP at […] (M); assay type: protein-complex assay
[6] = target: Platelet-activating factor receptor (Homo sapiens) (UniProt P25105); experiment: Inhibitory activity against Platelet activating factor receptor using [3H]PAF at […] (M)
Platelet-activating factor receptor (Homo sapiens), sequence (P25105 whole entry): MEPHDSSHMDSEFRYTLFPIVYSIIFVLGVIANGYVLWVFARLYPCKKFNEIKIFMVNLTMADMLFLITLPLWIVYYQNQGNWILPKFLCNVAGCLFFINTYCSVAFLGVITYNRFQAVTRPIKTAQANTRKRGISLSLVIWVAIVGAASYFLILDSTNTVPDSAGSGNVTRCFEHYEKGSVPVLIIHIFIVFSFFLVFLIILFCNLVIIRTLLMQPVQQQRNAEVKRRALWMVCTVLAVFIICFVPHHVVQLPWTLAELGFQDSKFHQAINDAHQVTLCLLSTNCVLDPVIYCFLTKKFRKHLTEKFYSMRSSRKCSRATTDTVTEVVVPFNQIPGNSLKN

[7] = target: Beta-2 adrenergic receptor (Homo sapiens) (UniProt P07550); experiment: Inhibitory activity against Beta-2 adrenergic receptor using [3H]CGP-12177 at […] (M)
Beta-2 adrenergic receptor (Homo sapiens), sequence (P07550 whole entry, looked up): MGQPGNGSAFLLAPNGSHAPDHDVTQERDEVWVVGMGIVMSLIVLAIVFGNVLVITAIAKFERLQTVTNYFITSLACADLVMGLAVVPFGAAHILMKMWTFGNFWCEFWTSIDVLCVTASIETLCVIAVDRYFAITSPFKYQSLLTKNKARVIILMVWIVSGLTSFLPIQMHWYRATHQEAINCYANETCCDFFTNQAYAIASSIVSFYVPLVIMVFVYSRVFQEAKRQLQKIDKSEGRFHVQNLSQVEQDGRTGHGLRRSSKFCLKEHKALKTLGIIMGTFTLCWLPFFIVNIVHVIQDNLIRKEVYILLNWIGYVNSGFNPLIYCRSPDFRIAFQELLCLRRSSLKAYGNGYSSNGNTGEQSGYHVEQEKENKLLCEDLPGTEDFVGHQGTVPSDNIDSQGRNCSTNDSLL

[8] = target: 5-hydroxytryptamine receptor 1B (Rattus norvegicus, UniProt P28564); experiment: Binding affinity for 5-hydroxytryptamine 1B receptor
5-hydroxytryptamine receptor 1B, sequence (P28564 whole entry): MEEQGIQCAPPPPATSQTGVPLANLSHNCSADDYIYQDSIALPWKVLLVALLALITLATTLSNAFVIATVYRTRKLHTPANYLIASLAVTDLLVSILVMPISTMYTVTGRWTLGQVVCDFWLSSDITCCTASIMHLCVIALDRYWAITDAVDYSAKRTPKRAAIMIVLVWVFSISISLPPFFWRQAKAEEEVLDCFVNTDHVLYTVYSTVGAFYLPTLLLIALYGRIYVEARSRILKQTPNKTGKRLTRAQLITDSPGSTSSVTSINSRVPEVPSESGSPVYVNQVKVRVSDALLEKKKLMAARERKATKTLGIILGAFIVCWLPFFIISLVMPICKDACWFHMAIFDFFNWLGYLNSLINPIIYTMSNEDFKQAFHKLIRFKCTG

[9] = target: D(1A) dopamine receptor (Homo sapiens) (UniProt P21728); experiment: Inhibitory activity against Dopamine receptor D1 using [3H]SCH-23,390 at […] (M)
D(1A) dopamine receptor (Homo sapiens), sequence (P21728 whole entry): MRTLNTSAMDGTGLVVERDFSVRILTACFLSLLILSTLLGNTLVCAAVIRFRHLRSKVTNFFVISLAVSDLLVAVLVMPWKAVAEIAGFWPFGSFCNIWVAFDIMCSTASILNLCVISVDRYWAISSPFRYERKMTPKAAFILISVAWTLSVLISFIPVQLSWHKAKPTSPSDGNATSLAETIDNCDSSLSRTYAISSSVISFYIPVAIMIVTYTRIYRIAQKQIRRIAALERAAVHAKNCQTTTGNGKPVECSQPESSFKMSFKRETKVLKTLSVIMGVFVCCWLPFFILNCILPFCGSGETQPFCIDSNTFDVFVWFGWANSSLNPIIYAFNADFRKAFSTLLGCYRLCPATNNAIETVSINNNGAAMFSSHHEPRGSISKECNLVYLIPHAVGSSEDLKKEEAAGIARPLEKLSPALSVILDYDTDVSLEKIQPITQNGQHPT

[10] = target: Adenosine A2 receptor (Homo sapiens) (UniProt P29275+P29274); experiment: Inhibitory activity against Adenosine A2 receptor using [3H]CGS-21680 at […] (M); assay type: protein assay
[11] = Inhibition of [3H]PK11195 binding to peripheral Benzodiazepine receptor at 10e-5 M
[12] = target: Leukotriene B4 receptor 1 (Homo sapiens) (UniProt Q15722); experiment: Inhibitory activity against Leukotriene B4 receptor using [3H]- LTB4 at […] (M)
Leukotriene B4 receptor 1 (Homo sapiens), sequence (Q15722 whole entry): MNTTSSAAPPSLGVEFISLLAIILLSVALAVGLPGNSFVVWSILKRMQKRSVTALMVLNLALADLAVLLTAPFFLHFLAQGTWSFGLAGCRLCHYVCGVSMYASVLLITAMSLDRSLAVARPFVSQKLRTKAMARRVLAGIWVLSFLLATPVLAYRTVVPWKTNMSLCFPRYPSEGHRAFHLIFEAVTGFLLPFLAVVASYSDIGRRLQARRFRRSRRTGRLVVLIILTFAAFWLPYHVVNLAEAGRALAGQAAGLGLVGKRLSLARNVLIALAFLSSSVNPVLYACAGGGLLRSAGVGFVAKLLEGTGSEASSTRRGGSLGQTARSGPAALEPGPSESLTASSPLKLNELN

[13] = target: Muscarinic acetylcholine receptor M3 (Homo sapiens) (UniProt P20309); experiment: Inhibitory activity against Muscarinic acetylcholine receptor M3 using [3H]NMS at […] (M)
Muscarinic acetylcholine receptor M3 (Homo sapiens), sequence (P20309 whole entry, looked up): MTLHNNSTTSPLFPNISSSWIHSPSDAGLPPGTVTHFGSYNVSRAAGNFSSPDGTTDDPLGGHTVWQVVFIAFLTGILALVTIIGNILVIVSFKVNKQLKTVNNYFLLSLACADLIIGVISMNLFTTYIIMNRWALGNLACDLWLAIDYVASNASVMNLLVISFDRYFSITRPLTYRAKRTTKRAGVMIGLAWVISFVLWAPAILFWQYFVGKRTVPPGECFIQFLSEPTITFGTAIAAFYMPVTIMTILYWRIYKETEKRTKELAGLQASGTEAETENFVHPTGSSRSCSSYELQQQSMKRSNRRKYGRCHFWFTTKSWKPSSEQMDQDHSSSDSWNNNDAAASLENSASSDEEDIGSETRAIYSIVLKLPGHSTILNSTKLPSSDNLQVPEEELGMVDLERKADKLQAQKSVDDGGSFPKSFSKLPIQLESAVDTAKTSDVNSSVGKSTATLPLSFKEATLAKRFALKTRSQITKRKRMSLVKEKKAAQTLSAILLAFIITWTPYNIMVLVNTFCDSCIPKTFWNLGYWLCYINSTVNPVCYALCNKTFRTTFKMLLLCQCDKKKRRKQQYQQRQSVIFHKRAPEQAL

[14] = target: T1, Glutamate [NMDA] receptor (Homo sapiens); experiment: Inhibitory activity against NMDA using [3H]CGS-19,755 at […] (M); assay type: protein-complex assay
[15] = Inhibitory activity against Gamma-aminobutyric acid type B receptor using [3H]GABA at 10e-5 M
[16] = target: Neuropeptide Y receptor type 1 (Homo sapiens) (UniProt P25929); experiment: Inhibitory activity against Neuropeptide Y receptor type 1 using [3H]-NPY at 10e5 (M)
Neuropeptide Y receptor type 1 (Homo sapiens), sequence (P25929 whole entry): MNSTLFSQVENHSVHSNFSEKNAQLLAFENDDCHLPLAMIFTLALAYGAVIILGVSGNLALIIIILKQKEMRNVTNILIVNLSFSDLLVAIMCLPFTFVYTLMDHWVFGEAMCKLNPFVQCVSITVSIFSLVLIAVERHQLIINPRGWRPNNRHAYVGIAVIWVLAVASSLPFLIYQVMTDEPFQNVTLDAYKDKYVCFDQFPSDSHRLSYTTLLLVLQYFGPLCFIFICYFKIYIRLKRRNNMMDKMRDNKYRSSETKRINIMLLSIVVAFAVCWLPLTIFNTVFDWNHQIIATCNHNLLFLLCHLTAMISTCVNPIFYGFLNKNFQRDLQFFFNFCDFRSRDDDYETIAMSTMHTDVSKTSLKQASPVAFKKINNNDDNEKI

[17] = target: T2, 5-hydroxytryptamine receptor 2C (Homo sapiens, UniProt P28335); experiment: Binding affinity towards 5-hydroxytryptamine 2C receptor
T2 sequence (P28335 whole entry): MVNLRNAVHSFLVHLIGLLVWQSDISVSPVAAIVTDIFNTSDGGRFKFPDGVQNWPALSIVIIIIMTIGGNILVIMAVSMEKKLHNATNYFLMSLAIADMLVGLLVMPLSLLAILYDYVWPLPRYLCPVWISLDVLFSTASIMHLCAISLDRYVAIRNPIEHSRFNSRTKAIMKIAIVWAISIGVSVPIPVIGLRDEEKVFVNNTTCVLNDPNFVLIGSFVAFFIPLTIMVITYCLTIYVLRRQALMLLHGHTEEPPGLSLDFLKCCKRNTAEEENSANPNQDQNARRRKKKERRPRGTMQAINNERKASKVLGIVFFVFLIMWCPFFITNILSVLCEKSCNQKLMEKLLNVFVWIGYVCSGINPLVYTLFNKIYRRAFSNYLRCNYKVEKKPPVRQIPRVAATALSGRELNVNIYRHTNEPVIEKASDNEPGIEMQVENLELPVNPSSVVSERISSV

[18] = target: Glutamate receptor ionotropic AMPA (Homo sapiens) (UniProt P48058+P42263+P42262+P42261); experiment: Inhibitory activity against Quisqualate receptor using [3H]AMPA at […] (M); assay type: protein-complex assay
[19] = target: T3, Serotonin 3 (5-HT3) receptor (Rattus norvegicus, UniProt P35563+Q9JJ16); experiment: Binding affinity towards 5-hydroxytryptamine 3 receptor; assay type: protein-complex assay
T3 sequence (P35563 whole entry): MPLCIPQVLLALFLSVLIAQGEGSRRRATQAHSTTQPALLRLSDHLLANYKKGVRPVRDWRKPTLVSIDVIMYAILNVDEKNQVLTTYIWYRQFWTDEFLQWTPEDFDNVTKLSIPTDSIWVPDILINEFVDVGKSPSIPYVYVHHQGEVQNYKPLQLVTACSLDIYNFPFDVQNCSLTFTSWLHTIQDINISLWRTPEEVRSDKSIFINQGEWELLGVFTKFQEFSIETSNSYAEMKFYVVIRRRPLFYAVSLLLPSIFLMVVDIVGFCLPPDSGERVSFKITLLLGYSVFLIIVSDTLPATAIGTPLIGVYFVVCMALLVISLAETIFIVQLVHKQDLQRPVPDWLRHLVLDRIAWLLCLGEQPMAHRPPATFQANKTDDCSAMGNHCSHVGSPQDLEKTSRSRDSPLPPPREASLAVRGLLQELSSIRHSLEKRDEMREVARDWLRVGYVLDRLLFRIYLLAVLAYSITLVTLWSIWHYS
T3 sequence (Q9JJ16 whole entry): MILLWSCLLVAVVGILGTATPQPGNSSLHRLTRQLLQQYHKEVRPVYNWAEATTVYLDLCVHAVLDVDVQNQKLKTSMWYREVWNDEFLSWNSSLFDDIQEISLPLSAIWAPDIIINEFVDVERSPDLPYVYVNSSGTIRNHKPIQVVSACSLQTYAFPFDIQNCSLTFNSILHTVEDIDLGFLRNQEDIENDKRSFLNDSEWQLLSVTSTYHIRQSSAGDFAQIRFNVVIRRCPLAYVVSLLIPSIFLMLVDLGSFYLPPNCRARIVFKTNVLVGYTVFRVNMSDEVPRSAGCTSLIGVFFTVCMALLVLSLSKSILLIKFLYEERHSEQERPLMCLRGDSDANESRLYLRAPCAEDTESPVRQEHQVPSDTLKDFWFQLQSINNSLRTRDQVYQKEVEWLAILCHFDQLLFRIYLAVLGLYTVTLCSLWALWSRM

[20] = target: Adrenergic receptor alpha-1 (Homo sapiens) (UniProt P35348+P25100+P35368); experiment: Inhibitory activity against Alpha-1 adrenergic receptor using [3H]-prazosin at 10e-5 (M); assay type: protein assay
[21] = target: 5-hydroxytryptamine receptor 2A (Bos taurus, UniProt Q75Z89); experiment: Binding affinity towards 5-hydroxytryptamine 2A receptor
5-hydroxytryptamine receptor 2A, sequence (Q75Z89 whole entry): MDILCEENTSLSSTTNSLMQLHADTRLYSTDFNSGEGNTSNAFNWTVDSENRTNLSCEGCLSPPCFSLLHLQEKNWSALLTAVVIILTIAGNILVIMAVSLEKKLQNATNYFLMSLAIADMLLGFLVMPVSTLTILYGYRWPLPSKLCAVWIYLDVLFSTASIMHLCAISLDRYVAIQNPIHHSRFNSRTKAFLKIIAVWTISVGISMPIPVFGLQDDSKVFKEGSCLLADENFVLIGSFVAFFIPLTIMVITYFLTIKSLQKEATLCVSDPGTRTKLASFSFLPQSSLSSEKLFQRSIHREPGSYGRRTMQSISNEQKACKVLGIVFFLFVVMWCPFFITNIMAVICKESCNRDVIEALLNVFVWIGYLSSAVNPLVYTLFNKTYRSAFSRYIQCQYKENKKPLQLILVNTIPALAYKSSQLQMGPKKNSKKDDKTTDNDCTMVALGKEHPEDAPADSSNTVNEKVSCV

[22] = target: Cholecystokinin receptor type A (Homo sapiens) (UniProt P32238); experiment: Inhibitory activity against Cholecystokinin type A receptor using [3H]L-364718 at […] (M)
Cholecystokinin receptor type A (Homo sapiens), sequence (P32238 whole entry): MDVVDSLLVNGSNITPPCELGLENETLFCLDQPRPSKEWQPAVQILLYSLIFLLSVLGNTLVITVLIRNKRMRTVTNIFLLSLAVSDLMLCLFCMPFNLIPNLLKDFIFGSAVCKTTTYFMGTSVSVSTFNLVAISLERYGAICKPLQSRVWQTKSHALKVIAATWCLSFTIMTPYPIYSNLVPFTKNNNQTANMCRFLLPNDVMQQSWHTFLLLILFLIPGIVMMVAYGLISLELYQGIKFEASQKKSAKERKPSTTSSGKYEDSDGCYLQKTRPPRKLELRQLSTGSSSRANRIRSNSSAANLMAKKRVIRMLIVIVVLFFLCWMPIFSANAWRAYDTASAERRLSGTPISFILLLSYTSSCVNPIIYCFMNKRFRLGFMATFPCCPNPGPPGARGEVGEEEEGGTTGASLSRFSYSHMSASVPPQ

5-hydroxytryptamine receptor 1D, sequence (P79400 whole entry): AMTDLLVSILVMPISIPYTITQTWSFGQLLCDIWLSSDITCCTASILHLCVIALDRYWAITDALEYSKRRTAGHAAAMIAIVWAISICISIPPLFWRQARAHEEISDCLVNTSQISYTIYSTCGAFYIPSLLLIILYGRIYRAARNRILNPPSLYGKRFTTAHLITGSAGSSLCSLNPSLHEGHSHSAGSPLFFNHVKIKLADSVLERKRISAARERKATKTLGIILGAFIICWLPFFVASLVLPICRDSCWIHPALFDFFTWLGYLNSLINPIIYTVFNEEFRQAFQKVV

SMILES: c1ccc(CN2CCN(c3nc4ccsc4n4cccc34)CC2)cc1
- IC50 [1]: 14.1 µM
- inhibition [2]: 32%
- inhibition [3]: 5%
- EC50 [4]: 10 nM
- inhibition [5]: 10%
- inhibition [6]: 2%
- inhibition [7]: 19%
- IC50 [8]: 1020 nM
- inhibition [9]: 14%
- inhibition [10]: 4%
- inhibition [11]: 34%
- inhibition [12]: 17%
- inhibition [13]: 20%
- inhibition [14]: 19%
- inhibition [15]: 40%
- inhibition [16]: 4%
- IC50 [17]: 1860 nM
- inhibition [18]: 24%
- IC50 [19]: 1.41 nM
- inhibition [20]: 26%
- IC50 [21]: 4.37 µM
- inhibition [22]: 7%
